Laboratory results reported in paper PMC8103899, “Allyl Isothiocyanate: A TAS2R38 Receptor-Dependent Immune Modulator at the Interface Between Personalized Medicine and Nutrition” (Frontiers in Immunology, 2021).

Assays:
TRPV1 = TRPV1 (Homo sapiens, UniProt Q8NER1); test: Calcium flux in PAV/PAV monocytes after TRPV1 antagonist pre-treatment before AITC; assay type: cell-based
Description: Baseline fluorescence was recorded for 60 sec.

TAS2R38-PAV receptor = tested on: TAS2R38-PAV receptor; parameters: method as in PMID 20022913; conditions: cited from earlier work
[1] = Human food intervention: AITC metabolite plasma levels after mustard intake (LC-ESI-MS/MS); assay type: in vivo; conditions: for detection in plasma: human volunteers after mustard preparation (data not shown); for blood plasma level: human volunteers
Description: AITC metabolite quantification was carried out in blood plasma samples derived from an intervention study at the University Medical Center in Freiburg, Germany. Samples were from 4 healthy young adults (3 females, 1 male, aged between 30-40 years) having a normal BMI, and were non-smokers. Each subject consumed one time 10 g of a commercially available mustard preparation ([…] Munich, Germany) containing 24.74 ± 1.76 μmol/g fresh weight preformed AITC on an empty stomach with optional consumption of white bread. The intervention was preceded by a 48 h wash-out phase consisting of a glucosinolate/ITC-free diet. After 30 min and optionally 60 min, blood was collected by venipuncture in serum tubes and centrifuged at 2000g for 10 min, 4°C to obtain serum. Subsequently, TFA was added and the samples frozen at -80°C. The preparation of serum samples (300 μL serum and 100 μL TFA) was conducted as described by Kühn et al. ([37]). The frozen samples were thawed, vortexed (1 min) and centrifuged (4 °C, 10 min, 20.854 x g). The supernatant was transferred to SPE cartridges. Prior to transferring, SPE cartridges were conditioned with acetonitrile (ACN, 3 mL) and equilibrated with water (3 mL). After sample application, the cartridges were washed with formic acid (FA, 3 mL, 0.1% in water) and the metabolites were eluted with FA (3 mL, 0.1% in ACN:water, 90:10, v/v). […] The samples were re-dissolved in 100 μL FA (0.1% in ACN:water, 90:10, v/v). Sample aliquots of 5 μL were injected into the LC-ESI-MS/MS system. LC-ESI-MS/MS analysis was performed on an API4000 triple quadrupole mass spectrometer (AB Sciex Germany GmbH, Darmstadt, Germany) equipped with an Agilent 1200 LC system (Agilent Technologies Deutschland GmbH & Co. KG, Waldbronn, Germany). For data acquisition and processing the software Analyst 1.6.1 (AB Sciex Germany GmbH, Darmstadt, Germany) was used. […] AITC-CysGly; AITC-Cys; AITC-NAC) was conducted according to Platz et al. ([38]) with minor modifications. The separation was performed on a Kinetex C18 column (Phenomenex, 5 μm, 100 Å, 150 x 2.1 mm). The autosampler operated at 4°C and the set temperature for the oven was 20°C. A constant flow of 300 μL/min was used for the mobile phase which consisted of 0.1% FA in water (A) and 0.1% FA in ACN (B). […] In order to equilibrate the column, A was increased to 90% and held for 5 min. The relevant MS parameters include an entrance potential of -10 V, a desolvation gas temperature of 450°C, ion spray potential of -4.5 kV, gas 1 and gas 2 at 46 psi and a curtain gas pressure at 10 psi.

PLC-β2 = PLC-β2 (Homo sapiens, UniProt Q00722); test: Calcium flux in PAV/PAV monocytes after PLC-β2 antagonist pre-treatment before AITC; conditions: cell pretreatment with U73122 for 30 min
Sequence of PLC-β2 (Q00722 whole entry): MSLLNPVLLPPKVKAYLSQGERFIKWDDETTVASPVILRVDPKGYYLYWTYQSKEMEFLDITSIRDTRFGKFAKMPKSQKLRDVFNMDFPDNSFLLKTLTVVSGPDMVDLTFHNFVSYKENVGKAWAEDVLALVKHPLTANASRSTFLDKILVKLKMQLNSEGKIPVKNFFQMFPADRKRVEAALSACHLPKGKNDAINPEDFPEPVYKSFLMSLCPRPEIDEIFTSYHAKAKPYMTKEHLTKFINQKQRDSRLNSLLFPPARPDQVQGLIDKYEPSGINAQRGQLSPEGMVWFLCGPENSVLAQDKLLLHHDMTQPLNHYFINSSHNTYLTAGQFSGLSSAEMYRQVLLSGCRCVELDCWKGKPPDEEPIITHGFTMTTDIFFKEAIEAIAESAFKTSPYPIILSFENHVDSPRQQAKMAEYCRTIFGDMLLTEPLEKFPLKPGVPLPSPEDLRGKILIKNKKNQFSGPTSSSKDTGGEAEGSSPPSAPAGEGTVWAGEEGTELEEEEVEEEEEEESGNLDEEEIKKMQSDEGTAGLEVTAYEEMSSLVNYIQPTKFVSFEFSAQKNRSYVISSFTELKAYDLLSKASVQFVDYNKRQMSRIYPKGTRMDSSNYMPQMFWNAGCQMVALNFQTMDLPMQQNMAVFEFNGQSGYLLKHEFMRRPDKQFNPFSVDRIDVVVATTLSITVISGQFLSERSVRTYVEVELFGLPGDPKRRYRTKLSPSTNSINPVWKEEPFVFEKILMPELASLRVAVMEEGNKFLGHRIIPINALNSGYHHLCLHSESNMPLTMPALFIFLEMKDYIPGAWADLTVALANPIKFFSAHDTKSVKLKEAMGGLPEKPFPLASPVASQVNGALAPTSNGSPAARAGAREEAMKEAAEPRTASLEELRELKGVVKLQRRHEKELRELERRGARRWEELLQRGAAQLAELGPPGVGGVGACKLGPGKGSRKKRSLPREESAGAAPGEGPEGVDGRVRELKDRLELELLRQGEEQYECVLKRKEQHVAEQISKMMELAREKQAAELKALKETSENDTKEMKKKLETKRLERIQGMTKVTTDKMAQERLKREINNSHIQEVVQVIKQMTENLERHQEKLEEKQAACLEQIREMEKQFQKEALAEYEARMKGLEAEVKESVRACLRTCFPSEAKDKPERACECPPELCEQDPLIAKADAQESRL

[2] = tested on: extracellular calcium influx in monocytes; test: Calcium flux in PAV/PAV monocytes after EDTA pre-treatment before AITC; conditions: 0.5 mM EDTA
TAS2R38 = tested on: TAS2R38; parameters: method as in PMID 23041624; conditions: sinonasal cells, TAS2R38 genotype dependent; cited from earlier work
[3] = tested on: sinonasal epithelial cells; parameters: method as in PMID 24531552; conditions: cited from earlier work
[4] = tested on: LPS stimulated leukocytes; conditions: cited from earlier work
TRPA1 = tested on: TRPA1; parameters: method as in PMID 21763756; conditions: calcium assays; cited from earlier work
[5] = tested on: intracellular calcium release; parameters: method as in PMID 8393876; conditions: 1% DMSO; cited from earlier work
TAS2R38 receptor = target: T1, TAS2R38 receptor (Homo sapiens, UniProt P59533, A49P/I296V); test: Calcium flux assay in human PBMC (flow cytometry, Fluo-4 AM); conditions: human PAV/PAV monocytes
T1 sequence (P59533 1-333 A49P/I296V): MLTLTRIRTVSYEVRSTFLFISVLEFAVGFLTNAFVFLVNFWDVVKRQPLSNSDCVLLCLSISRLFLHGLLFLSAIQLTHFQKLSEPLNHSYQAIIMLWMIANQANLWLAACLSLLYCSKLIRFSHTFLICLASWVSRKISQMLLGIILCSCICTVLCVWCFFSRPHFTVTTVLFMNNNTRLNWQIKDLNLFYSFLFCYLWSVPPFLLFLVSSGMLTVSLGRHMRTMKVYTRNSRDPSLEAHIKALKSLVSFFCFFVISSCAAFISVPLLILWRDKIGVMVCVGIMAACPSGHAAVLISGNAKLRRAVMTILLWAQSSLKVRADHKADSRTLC

TAS2R38-PAV = tested on: TAS2R38-PAV; parameters: method as in PMID 28902853; conditions: transfected HEK293 cells (~0.9% DMSO solution), approximately; cited from earlier work

Sequence of TRPV1 (Q8NER1 whole entry): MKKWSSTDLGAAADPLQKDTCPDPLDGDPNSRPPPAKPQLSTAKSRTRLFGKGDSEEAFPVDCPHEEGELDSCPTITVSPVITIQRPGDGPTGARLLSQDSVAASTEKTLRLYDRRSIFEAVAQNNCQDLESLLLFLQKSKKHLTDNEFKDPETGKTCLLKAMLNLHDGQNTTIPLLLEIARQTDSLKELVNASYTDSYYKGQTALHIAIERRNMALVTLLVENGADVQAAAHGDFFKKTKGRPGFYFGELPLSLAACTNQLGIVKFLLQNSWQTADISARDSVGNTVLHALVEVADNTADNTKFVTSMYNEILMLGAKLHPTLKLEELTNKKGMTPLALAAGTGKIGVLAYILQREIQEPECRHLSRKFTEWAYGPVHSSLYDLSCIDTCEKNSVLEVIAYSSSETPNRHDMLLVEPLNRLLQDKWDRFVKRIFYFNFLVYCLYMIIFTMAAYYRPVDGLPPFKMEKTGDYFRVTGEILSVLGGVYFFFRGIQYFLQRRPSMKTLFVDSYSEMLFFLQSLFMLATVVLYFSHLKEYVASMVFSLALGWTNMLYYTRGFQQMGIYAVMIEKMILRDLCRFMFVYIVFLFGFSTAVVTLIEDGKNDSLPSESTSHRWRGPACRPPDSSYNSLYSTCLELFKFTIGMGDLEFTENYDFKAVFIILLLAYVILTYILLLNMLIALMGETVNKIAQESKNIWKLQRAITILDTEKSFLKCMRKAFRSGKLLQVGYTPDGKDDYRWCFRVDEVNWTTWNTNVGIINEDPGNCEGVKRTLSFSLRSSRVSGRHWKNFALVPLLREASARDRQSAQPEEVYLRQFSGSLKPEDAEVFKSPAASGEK

## Oc1cc2c(cc1O)CN(C(=S)NCCc1ccc(Cl)cc1)CCC2 [capsazepine]
TRPV1; capsazepine pretreatment, 1 µM AITC
  effect on AITC mediated calcium release: not effected
TRPV1; pretreatment 10 µM capsazepine, stimulation with 100 µM AITC
  effect on AITC mediated calcium release: reduction of AITC mediated calcium release

## C=CCC(=NOS(=O)(=O)O)S[C@@H]1O[C@H](CO)[C@@H](O)[C@H](O)[C@H]1O (stereo in doubt) [sinigrin]
TAS2R38-PAV receptor; HEK293T-Gα16gust44 cells transiently transfected
  activation of TAS2R38 taster variant among 25 TAS2Rs: selectively triggered the taster variant

## C=CCNC(=S)SC[C@H](NC(=O)CC[C@H](N)C(=O)O)C(=O)NCC(=O)O [AITC-GSH]
[1]
  detection in plasma: No other AITC metabolites (AITC-GSH or AITC-CG) could be detected

## COc1ccc2c(c1)CC[C@@H]1[C@@H]2CC[C@]2(C)[C@@H](NCCCCCCN3C(=O)C=CC3=O)CC[C@@H]12 [U73122]
PLC-β2
  effect on AITC induced calcium release: almost completely block

## C=CCNC(=S)SC[C@H](NC(C)=O)C(=O)O [AITC-NAC]
[1]; 0.5 h after 10 g mustard preparation
  blood plasma level: 836.7 ± 67.7 nM
[1]; 1 h after 10 g mustard preparation
  blood plasma level: 1001.0 ± 228.3 nM

## C[S@@+]([O-])CCCCN=C=S [L-sulforaphane]
TAS2R38-PAV receptor
  activation of the TAS2R38-PAV receptor: did not

## O=C(O)CN(CCN(CC(=O)O)CC(=O)O)CC(=O)O [EDTA]
[2]; 1 µM AITC
  effect on calcium influx triggered by AITC: did not impact
[2]; 100 µM AITC
  reduction in calcium flux: 67%

## NC(=S)Nc1ccccc1 [PTC]
TAS2R38
  NO production: stimulated

## CC[N+](CC)(CC(=O)Nc1c(C)cccc1C)Cc1ccccc1 [denatonium]
[3]
  cytokine release: marginal change
[4]
  multiple cytokine production, including TNF-α: marked reduction

## C=CCNC(=S)SC[C@H](N)C(=O)NCC(=O)O [AITC-CG]
[1]
  detection in plasma: No other AITC metabolites (AITC-GSH or AITC-CG) could be detected

## C[S+](C)[O-] [DMSO, Dimethyl sulfoxide]
[5]
  calcium release: significant calcium release
TAS2R38 receptor; 0.1% DMSO
  effect on calcium release: no effect
TAS2R38 receptor; starting from 1.5% DMSO, not statistically significant
  mean calcium increase compared to untreated cells: 36%
TAS2R38-PAV
  threshold concentration: > 125 mM

## S=C=NCCc1ccccc1 [phenylethyl ITC]
TAS2R38-PAV receptor
  activation of the TAS2R38-PAV receptor: activated
